The values that follow come from ChEMBL document CHEMBL1782032, “New aromatic substituted pyrazoles as selective inhibitors of human adipocyte fatty acid-binding protein” (Bioorg Med Chem Lett, 2011).

Active and inactive are the calls of the source. The calls are words filed in the database; no cut-off is given here.

The subject of assay [1] is RAW264.7. In words: Antiinflammatory activity in […] RAW264.7 cells assessed as inhibition of lipopolysaccharide induced TNF-alpha mRNA expression by PCR. It counts as functional, cell-based.
In assay [2] the test system is RAW264.7. In words: Antiinflammatory activity in […] RAW264.7 cells assessed as inhibition of lipopolysaccharide induced MCP-1/CCL2 mRNA expression by PCR. It counts as functional, cell-based.
The target in assay [3] is T1, Fatty acid-binding protein, adipocyte (Homo sapiens, UniProt P15090). In words: Displacement of fluorescent 1-anilinonapthalene 8-sulfonic acid from human a-FABP by fluorescence spectrophotometry.
Target sequence in this assay (P15090 whole entry): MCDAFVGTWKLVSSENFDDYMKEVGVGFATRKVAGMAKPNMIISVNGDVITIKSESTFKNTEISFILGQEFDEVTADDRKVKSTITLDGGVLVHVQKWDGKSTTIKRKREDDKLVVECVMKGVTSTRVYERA
Assay [4] deals with T2, Fatty acid-binding protein, heart (Homo sapiens, UniProt P05413). The assay is described as follows: Displacement of fluorescent 1-anilinonapthalene 8-sulfonic acid from human h-FABP by fluorescence spectrophotometry.
Target sequence in this assay (P05413 whole entry): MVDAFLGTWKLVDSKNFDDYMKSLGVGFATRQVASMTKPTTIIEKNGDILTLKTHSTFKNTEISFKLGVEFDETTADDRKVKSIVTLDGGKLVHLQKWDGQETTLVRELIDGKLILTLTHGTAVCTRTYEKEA
Assay [5] has as its target T2, Fatty acid-binding protein, heart. The assay is described as follows: Displacement of fluorescent 1-anilinonapthalene 8-sulfonic acid from human h-FABP at 10 uM by fluorescence spectrophotometry.
Target sequence in this assay (P05413 2-133 limits assumed): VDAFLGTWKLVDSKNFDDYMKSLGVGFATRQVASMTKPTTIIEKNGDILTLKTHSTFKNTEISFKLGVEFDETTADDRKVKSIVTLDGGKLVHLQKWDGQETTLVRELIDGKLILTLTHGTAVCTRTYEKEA
The target in assay [6] is T1, Fatty acid-binding protein, adipocyte. The assay is described as follows: Displacement of fluorescent 1-anilinonapthalene 8-sulfonic acid from human a-FABP at 10 uM by fluorescence spectrophotometry.
Target sequence in this assay (P15090 2-132 limits assumed): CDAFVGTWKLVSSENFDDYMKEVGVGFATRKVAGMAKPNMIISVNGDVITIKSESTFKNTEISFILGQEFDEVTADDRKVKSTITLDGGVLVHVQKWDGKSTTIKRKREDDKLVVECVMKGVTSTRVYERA

Consider `CCc1c(-c2ccccc2)c(-c2ccccc2)nn1-c1ccccc1-c1cccc(OCC(=O)O)c1`, for which the inhibition entry in the assay with RAW264.7 [1] and in the assay on RAW264.7 [2] was “Dose-dependent effect” throughout.
Regarding `O=C(O)COc1cccc(-c2ccccc2-c2cc(-c3ccccc3)n(-c3ccc(Cl)cc3)n2)c1`, the inhibition constant (Ki) was 0.013 µM in assay [3] and 17 µM in assay [4].
Consider `CC(C)(Oc1cccc(-c2ccccc2-c2cc(-c3cccs3)n(-c3ccc(Cl)cc3)n2)c1)C(=O)O`, for which the Ki in assay [3] is < 0.001 µM; in assay [4] it was > 50 µM. Besides, the inhibition result in the assay on RAW264.7 [1] and with RAW264.7 [2] was “Dose-dependent effect” throughout.
For `O=C(O)COc1cccc(-c2ccccc2-c2cc(-c3cccs3)n(-c3ccc(Cl)cc3)n2)c1`, the Ki was 0.005 µM in assay [3] and 4.24 µM in assay [4].
As to `CC(Oc1cccc(-c2ccccc2-c2cc(-c3cccs3)n(-c3ccc(Cl)cc3)n2)c1)C(=O)O` (configuration not stated), the Ki was < 0.001 µM in assay [3] and 2.27 µM in assay [4]. For the same molecule, the inhibition entry in the assay with RAW264.7 [1] and in the assay with RAW264.7 [2] was “Dose-dependent effect” each time.
Turning to `CCC(Oc1cccc(-c2ccccc2-c2cc(-c3cccs3)n(-c3ccc(Cl)cc3)n2)c1)C(=O)O` (configuration not stated), the Ki in assay [3] is 0.006 µM; in assay [4], 3.72 µM.
For `O=C(O)COc1cccc(-c2ccccc2-c2cc(-c3ccccc3)n(-c3ccccc3)n2)c1` the same measures were 0.032 µM and 5.24 µM.
`CCOC(=O)COc1cccc(-c2ccccc2-n2nc(-c3ccccc3)c(-c3ccccc3)c2CC)c1`: the outcome in assay [5] and in assay [6] was inactive.
`O=C(O)COc1cccc(-c2ccccc2-c2cc(-c3ccco3)n(-c3ccc(Cl)cc3)n2)c1`: the Ki came out at 0.007 µM in assay [3] and 4.13 µM in assay [4].

By Ki is commonly meant the dissociation constant of the complex between target and ligand, obtained from inhibition or displacement.
